Measured values: patent US9102648B1, “Bioavailable diacylhydrazine ligands for modulating the expression of exogenous genes via an ecdysone receptor complex” (Intrexon Corporation, priority 2003, dated 2015)

Legend:
[1] = molecular target: T1, Bombyx mori EcR (VP16 fusion, CVBE switch construct) (Bombyx mori, UniProt P49881); assay: Z3 Assay (HEK-293 cells with CVBE and 6XEcRE LacZ, β-galactosidase reporter); details: for Fold Induction, Z3 Assay, 33 uM: 33 uM ligand; for Fold Induction, Z3 Assay, 33 uM / Fold Induction, Z3 Assay, 3.3 uM: ligand treated / DMSO treated cells; for Fold Induction, Z3 Assay, 33 uM / EC50 / Fold Induction, Z3 Assay, 3.3 uM: average of two wells; for EC50: read-out: Z3 assay EC50, β-galactosidase reporter; for EC50 / Z3 assay Rel Max FI: HEK-293 Z3 cells; for Fold Induction, Z3 Assay, 3.3 uM: 3.3 uM ligand; for Z3 assay Rel Max FI: maximum fold induction at any concentration relative to that of GS-E ligand
T1 sequence (P49881 86-606): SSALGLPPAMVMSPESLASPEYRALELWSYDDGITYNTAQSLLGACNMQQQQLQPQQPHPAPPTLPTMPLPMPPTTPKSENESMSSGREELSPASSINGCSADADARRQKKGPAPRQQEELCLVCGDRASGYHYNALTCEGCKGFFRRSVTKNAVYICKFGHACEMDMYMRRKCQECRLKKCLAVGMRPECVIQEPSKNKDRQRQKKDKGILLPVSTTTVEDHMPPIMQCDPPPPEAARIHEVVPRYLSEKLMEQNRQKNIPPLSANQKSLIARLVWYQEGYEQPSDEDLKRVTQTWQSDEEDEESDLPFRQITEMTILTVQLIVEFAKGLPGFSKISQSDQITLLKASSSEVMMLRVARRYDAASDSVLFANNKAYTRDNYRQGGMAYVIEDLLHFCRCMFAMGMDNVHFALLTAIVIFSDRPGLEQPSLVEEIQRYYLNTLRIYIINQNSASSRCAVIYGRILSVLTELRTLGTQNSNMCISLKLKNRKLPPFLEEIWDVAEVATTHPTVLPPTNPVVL
T1 sequence (P19793 1-462 partner): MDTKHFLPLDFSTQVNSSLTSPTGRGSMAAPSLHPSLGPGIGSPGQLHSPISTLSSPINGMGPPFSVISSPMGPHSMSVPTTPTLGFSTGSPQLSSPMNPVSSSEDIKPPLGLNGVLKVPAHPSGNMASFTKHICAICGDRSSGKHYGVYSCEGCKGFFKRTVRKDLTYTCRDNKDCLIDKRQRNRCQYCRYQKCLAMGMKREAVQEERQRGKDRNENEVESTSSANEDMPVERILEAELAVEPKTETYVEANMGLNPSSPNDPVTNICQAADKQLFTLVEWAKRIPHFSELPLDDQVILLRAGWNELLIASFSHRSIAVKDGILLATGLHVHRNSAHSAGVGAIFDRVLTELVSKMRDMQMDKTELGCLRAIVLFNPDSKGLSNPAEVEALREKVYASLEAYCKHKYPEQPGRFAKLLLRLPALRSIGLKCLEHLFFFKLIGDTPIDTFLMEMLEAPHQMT

[2] = molecular target: GAL4 DBD-CfEcR(DEF)/VP16AD-MmRXRE (Choristoneura fumiferana, UniProt O77240); assay: 13B3 Assay (CHO stable cell line, luciferase reporter); details: for Fold Induction, 13B3 Assay, 33 uM: 33 uM ligand; for Fold Induction, 13B3 Assay, 33 uM / Fold Induction, 13B3 Assay, 3.3 uM: RLU ligand treated / RLU DMSO treated cells; for Fold Induction, 13B3 Assay, 33 uM / Fold Induction, 13B3 Assay, 3.3 uM / EC50: average of two wells; for Fold Induction, 13B3 Assay, 3.3 uM: 3.3 uM ligand; for 13B3 assay Rel Max FI: maximum fold induction at any concentration relative to that of GS-E ligand, CHO 13B3 cells; for EC50: read-out: 13B3 EC50, CHO 13B3 stable cell line, luciferase reporter, 48 h
Procedure, shortened: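 Ligands dosed at 8 levels from 33 to 0.01 μM (DMSO stocks diluted 300-fold) onto the 13B3 CHO line carrying GAL4-DBD/CfEcR-DEF, VP16/MmRXR-DE and a GAL4-responsive luciferase gene.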

| SMILES | Fold Induction, Z3 Assay, 33 uM [1] | EC50 [1] | Fold Induction, 13B3 Assay, 33 uM [2] | Fold Induction, Z3 Assay, 3.3 uM [1] | Z3 assay Rel Max FI [1] | Fold Induction, 13B3 Assay, 3.3 uM [2] | 13B3 assay Rel Max FI [2] | EC50 [2] |
| --- | --- | --- | --- | --- | --- | --- | --- | --- |
| COc1cccc(C(=O)NN(C(=O)c2cccnc2Cl)C(C)(C)C)c1C [RG-100127] | 245 | 4680 nM | 365 | – | – | – | – | – |
| COc1ccccc1C(=O)N(NC(=O)c1ccc2c(c1C)OCOC2)C(C)(C)C [RG-100216] | 398 | 1780 nM | 8037 | – | – | – | – | – |
| COc1cc(C(=O)N(NC(=O)c2cccc(OC)c2C)C(C)(C)C)ccc1C [RG-100768] | 425 | 214 nM | 709 | 1246 | 1.129 | – | – | – |
| COc1cc(C)ccc1C(=O)N(NC(=O)c1cccc(OC)c1C)C(C)(C)C [RG-100769] | 542 | 219 nM | 386 | 1096 | 1.109 | 1014 | 0.685 | 337 nM |
| CCc1c(OC)cccc1C(=O)NN(C(=O)c1cc(OC)cc(OC)c1)C(C)(C)C [RG-100778] | 365 | 513 nM | 2344 | – | 1.000 | – | – | – |
| CC(C)(C)N(NC(=O)c1c(F)cccc1F)C(=O)c1cc(Cl)cc(Cl)c1 [RG-100801] | 153 | 891 nM | 16 | – | – | – | – | – |
| CC(=O)c1cccc(C(=O)NN(C(=O)c2cc(C)cc(C)c2)C(C)(C)C)c1C [RG-100814] | 1279 | 1150 nM | 1151 | 410 | – | 423 | 0.843 | 37900 nM |
| COc1cc(Cl)ccc1C(=O)N(NC(=O)c1cccc(OC)c1C)C(C)(C)C [RG-100848] | 26 | 240 nM | 578 | 885 | 0.996 | 3391 | 0.666 | 1640 nM |
| Cc1cc(C)cc(C(=O)N(NC(=O)c2ccc(CC#N)cc2)C(C)(C)C)c1 [RG-100875] | 1081 | 2040 nM | 1143 | 1006 | 0.818 | 23 | 0.853 | 4020 nM |
| COc1cccc(C(=O)NN(C(=O)c2ccc(Cl)cc2F)C(C)(C)C)c1C [RG-100929] | 490 | 631 nM | 359 | – | – | – | – | – |
| CCc1ccc(C(=O)NN(C(=O)c2ccccc2[N+](=O)[O-])C(C)(C)C)cc1 [RG-101013] | 846 | 1480 nM | 406 | 1039 | 0.720 | 1084 | 0.539 | 2260 nM |
| Cc1cc(C)cc(C(=O)N(NC(=O)c2ccc3c(c2)COCO3)C(C)(C)C)c1 [RG-101016] | 394 | 2000 nM | 4693 | – | – | – | – | – |
| CCc1c(C(=O)NN(C(=O)c2cccc(C)c2)C(C)(C)C)ccc2c1OCCO2 [RG-101036] | 404 | 54 nM | 908 | 767 | 1.049 | 4582 | 0.545 | 223 nM |
| CC(C)(C)N(NC(=O)c1ccc2c(c1)OCO2)C(=O)c1ccc(F)cc1Cl [RG-101048] | 283 | 19100 nM | 701 | – | – | – | – | – |
| COc1ccc(C(=O)NN(C(=O)c2ccc(F)cc2Cl)C(C)(C)C)cc1 [RG-101057] | 930 | 4470 nM | 842 | 632 | 0.697 | 33 | 0.569 | 4970 nM |
| Cc1cc(C)cc(C(=O)N(NC(=O)c2cc3c(cc2C)OCO3)C(C)(C)C)c1 [RG-101088] | 302 | 4070 nM | 1400 | – | – | – | – | – |
| Cc1cc(C)cc(C(=O)N(NC(=O)c2cc3c(cc2Cl)OCO3)C(C)(C)C)c1 [RG-101171] | 268 | 3240 nM | 8453 | – | – | – | – | – |
| CCc1c(OC)cccc1C(=O)NN(C(=O)c1ccc(Cl)cc1OC)C(C)(C)C [RG-101218] | 398 | 316 nM | 1983 | 886 | 0.998 | – | – | – |
| COc1cccc(C(=O)NN(C(=O)c2cc(C)ccc2Cl)C(C)(C)C)c1Cl [RG-101248] | 375 | 1440 nM | 415 | – | – | – | – | – |
| Cc1cc(C)cc(C(=O)N(NC(=O)c2ccc3c(c2Br)OCCO3)C(C)(C)C)c1 [RG-101340] | 432 | 234 nM | 879 | 866 | 1.126 | 675 | 0.364 | 106 nM |
| COc1cccc(C(=O)NN(C(=O)c2cc(C)cc(Br)c2)C(C)(C)C)c1C [RG-101353] | 439 | 107 nM | 718 | 530 | 1.078 | 1347 | 1.163 | 675 nM |
| COc1cccc(C(=O)NN(C(=O)c2cc(Cl)cc(Br)c2)C(C)(C)C)c1C [RG-101408] | 398 | 148 nM | 326 | 780 | 1.118 | – | – | – |
